This is an account of results in paper PMC8752837, “Structural basis of BAK activation in mitochondrial apoptosis initiation” (Nature Communications, 2022).

The term Kd denotes the equilibrium constant for the complex coming apart. What is called EC50 is the concentration needed to bring the measured effect to its halfway point.

One assay has as its target T1, MEAS-BAK-His6 (Homo sapiens, UniProt Q16611).
T1 construct: C-terminus truncated recombinant human BAK containing C-terminal 6× histidine tag (MEAS-BAK); made in house; host or cells: E. coli T7 Express pLac I/Y
T1 sequence (Q16611 1-186 limits assumed): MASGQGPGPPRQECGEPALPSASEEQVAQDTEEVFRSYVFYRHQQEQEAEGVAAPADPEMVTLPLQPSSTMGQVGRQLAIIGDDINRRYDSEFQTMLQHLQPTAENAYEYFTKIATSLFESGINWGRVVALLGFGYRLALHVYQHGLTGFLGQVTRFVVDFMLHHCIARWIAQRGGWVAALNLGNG
The assay is described as follows: Surface plasmon resonance. It is filed as binding. The settings on record: 20 °C; MEAS-BAK-His6 captured on Ni-NTA HisCap chip; three-fold peptide dilution series injected in triplicate; 1:1 interaction model; read-out: SPR KD. Here is the method: We conducted SPR experiments at 20 °C using a Pioneer FE optical biosensor (ForteBio) amd histidine-tagged MEAS-BAK-His6 immobilized on polycarboxylate hydrogel-coated gold chips preimmobilized with nitrilotriacetic acid (HisCap chips; ForteBio). We primed the chip in chelating buffer (10 mM HEPES pH 7.4, 150 mM NaCl, 50 µM EDTA, 0.005% Tween20) and preconditioned it at 10 µL/min with three 60 s injections of wash buffer (10 mM HEPES pH 8.3, 150 mM NaCl, 350 mM EDTA, 0.05% Tween20) and one 60 s injection of chelating buffer before charging with a 60 s injection of 500 µM NiCl2 in chelating buffer. After priming into binding buffer (20 mM HEPES pH 8.0, 200 mM NaCl, 1 mM TCEP, 0.01% Tween20), we injected BAK to achieve ~500 RU of captured protein. As reference cell, we charged one flow cell on the chip with Ni^2+ without adding protein. […] We included a series of buffer-only (blank) injections throughout the experiment to account for instrumental noise. […] We processed, double-referenced, solvent corrected, and analyzed the data using the software package Qdat (version 4.3.1.2, ForteBio). We determined kinetic rate constants and affinities by fitting the data to a 1:1 interaction model.
A general note: Surface plasmon resonance follows binding to a sensor surface in real time, without labels.

The target of the next assay is T2, I81R(3) BAK (Homo sapiens, UniProt Q16611, I81R).
T2 construct: C-terminus truncated recombinant human BAK containing C-terminal 6× histidine tag (MEAS-BAK); made in house; host or cells: E. coli T7 Express pLac I/Y
T2 sequence (Q16611 1-186 I81R limits assumed): T1 sequence (Q16611 1-186 limits assumed) with I81R
The assay is described as follows: Liposome permeabilization assay: BH3 peptide activation of I81R(3) BAK receptor. The settings on record: 200 nM protein receptor; rebuttal, earlier Figure 7c; read-out: EC50 in liposome permeabilization upon direct activation of I81R BAK. It is filed as biochemical. Here is the method:
We next compared activation of mutant BAK receptors by WT BID BH3 and WT BAK BH3 peptide ligands. At concentrations above 1 µM, both peptide ligands would activate WT or V74A(1) BAK (Supplementary Figs. 3e, 4d, e, and Supplementary Table 1).
We performed liposome permeabilization assays as previously described[43]–[46]. […] (nickel salt) [DGS NTA(Ni), 2.5 μM final concentration in each assay] (Avanti Polar Lipids). We prepared 12.5 mM fluorophore; 8-aminonaphthalene-1, 3, 6-trisulfonic acid, disodium salt (ANTS) and 45 mM quencher; p-xylene-bis-pyridiniumbromide (DPX) in LUV buffer (10 mM HEPES pH 6.8, 200 mM KCl and 5 mM MgCl2). We mixed the lipid film in ANTS/DPX solution by vortexing and sonication (~15 min) followed by extrusion through polycarbonate membrane of 2 μm pore size (Avanti Polar lipids) to generate homogenous large unilamellar vesicles (LUVs). We separated LUVs from free ANTS/DPX by S500 size exclusion chromatography and stored them at 4 °C in the dark. We prepared peptide and protein dilutions in 96-well black flat bottom plates (Costar) kept on ice. ANTS release from permeabilized liposomes causes an increase in fluorescence, which we monitored at 37 °C for 90 min using a CLARIOSTAR microplate reader (BMG Labtech) set at excitation and emission wavelengths of 360 and 530 nm, respectively. We normalized the data relative to maximum and minimum fluorescence induced by 3% CHAPS and buffer controls, respectively. We quantified liposome permabilization by integrating area under curve (AUC) of normalized traces based on the Simpson’s equation, and analyzed that data in Excel and GraphPad Prism. AUC measurements reflect the kinetic and extent of liposome permeabilization and provide quantitative means for comparison between different experimental conditions (e.g., BAK mutants with gross or partial variation in activity). Variability in permeabilization of different liposomes is common and our analyses compare among conditions investigated with the same liposomes. […]

A further assay concerns the target T3, Human BAK-∆TM-His6 (BAK) (Homo sapiens, UniProt Q16611).
T3 construct: C-terminus truncated recombinant human BAK containing C-terminal 6× histidine tag (MEAS-BAK); made in house; host or cells: E. coli T7 Express pLac I/Y
T3 sequence (Q16611 1-186 limits assumed): T1 sequence (Q16611 1-186 limits assumed)
The assay is described as follows: Liposome permeabilization assay (ANTS/DPX dye release from LUVs): activation of WT BAK by BH3 peptides. It counts as biochemical. The settings on record: 50 nM BAK; EC50 from AUC vs peptide dose, data in Supplementary Figure 7c; 37 °C, 90 min; read-out: Liposome permeabilization EC50.

The target of a further assay is T4, I81R BAK (Homo sapiens, UniProt Q16611, I81R).
T4 construct: To generate tevBAK (residues 22–186), we cleaved off the histidine tag with TEV protease; His tag (vector pNIC28-Bsa4) (N, cleaved yes); made in house; host or cells: E. coli T7 Express pLac I/Y
T4 sequence (Q16611 22-186 I81R): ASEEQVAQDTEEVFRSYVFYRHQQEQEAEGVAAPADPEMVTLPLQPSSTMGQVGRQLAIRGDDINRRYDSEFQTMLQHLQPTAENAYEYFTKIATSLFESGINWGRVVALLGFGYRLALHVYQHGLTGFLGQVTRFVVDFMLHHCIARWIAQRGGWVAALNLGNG
The assay is described as follows: Isothermal titration calorimetry with mutant BAK. It is filed as binding. The settings on record: rebuttal, earlier Figures 7c, S10d. The protocol:
Protein samples were exchanged into 20 mM HEPES, 100 mM NaCl and 1 mM TCEP prior to the experiment. Titrations were performed by first injecting 0.5 μl of 250 or 500 µM BID BH3 peptides into a solution of 20 or 50 µM BAK followed by additional 2 μl injections. […] Results were analyzed using Origin software (OriginLab) provided by MicroCal. Binding constants (KD) and thermodynamic parameters were calculated from the average of two or three individual titrations by fitting the data to a single site binding model using a nonlinear least-squares fitting algorithm.

Assay [1] has as its system BCL2allKO HCT116 cells reconstituted with Dox-inducible mC-BAK. The assay is described as follows: Dox-induced cell death by IncuCyte imaging of SYTOX Green uptake (autoactivation). To be noted: qVD 40 µM. It is filed as cell-based, human. The text has this:
For mammalian cell culture experiments, we cloned the full length human BAK cDNA into pCR 2.1 TOPO vector, mutated BAK as needed, and PCR amplified the BAK gene for cloning into the BamHI and NotI sites of pRETROX mCherry vector for retroviral transduction. Amplification and mutagenesis primers are included in Supplementary Table 4. To test direct BAK activation and BAK autoactivation in cells, we produced cells stably expressing mCherry-human BAK (mC-BAK) ± human BID (BID) on a genetic background devoid of the entire BCL-2 family repertoire (all 17 BCL-2 genes), BCL2allKO HCT116, as described by the Xu Luo laboratory. […] To enrich for populations of cells that express mC-BAK, we treated cells with low Dox dose (25 ng/mL) and fluorescence-activated cell sorted (FACS) the mCherry positive cells. […]
We seeded cells in 24-well (100,000 cells/well), 96-well (15,000 cells/well), or 384-well (10,000 cells/well) plates coated with 10 µg/mL fibronectin. After ≥24 h of attachment and recovery, we induced cell death with Dox (up to 1000 ng/mL) and monitored SYTOX Green (25 nM) uptake by Incucyte imaging. […] We monitored Incucyte imaging for up to 48 h, followed by endpoint FACS analysis to measure the extent of cell death based on SYTOX Green positive cells on FACSCalibur systems (BD Biosciences). As expected, cells with low mCherry fluorescence were refractory to cell death.

Substitutions are numbered along the chain they refer to.

Turning to `CC[C@H](C)[C@H](NC(=O)[C@H](CC(N)=O)NC(=O)[C@H](CCCNC(=N)N)NC(=O)[C@@H](NC(=O)[C@@H](NC(=O)[C@H](CC(=O)O)NC(=O)[C@H](CCC(=O)O)NC(C)=O)[C@@H](C)CC)[C@@H](C)CC)C(=O)N[C@@H](C)C(=O)N[C@@H](CCCNC(=N)N)C(=O)N[C@@H](Cc1c[nH]cn1)C(=O)N[C@@H](CC(C)C)C(=O)N[C@@H](C)C(=O)N[C@@H](CCC(N)=O)C(=O)N[C@@H](CCSC)C(=O)NCC(=O)N[C@@H](CC(=O)O)C(=O)N[C@@H](CO)C(=O)N[C@@H](CCSC)C(=O)N[C@@H](CC(=O)O)C(=O)N[C@@H](CCCNC(=N)N)C(=O)N[C@@H](CO)C(=O)N[C@@H](Cc1c[nH]c2ccccc12)C(N)=O` [M(3)W(5)], the figures for the equilibrium dissociation constant (Kd) on MEAS-BAK-His6 and on I81R BAK were 506 ± 1 nM and 1340 nM, respectively. For the same molecule, the concentration for a half-maximal effect (EC50) on I81R(3) BAK was roughly 5000 nM; on Human BAK-∆TM-His6 (BAK), 79 ± 49 nM.
On to `CC(C)[C@H](NC(=O)c1ccc2ccccc2n1)C(=O)N[C@@H](CC(=O)O)C(=O)COc1c(F)cccc1F` [qVD, reference compound], for which, in assay [1], the “effect on cell death” value is recorded as “blocked cell death”.
